{
  "source": "patent US20240251790A1",
  "about": "(priority 2021, published 2024)",
  "assay_type_in_all_cases": "cell-based",
  "key": {"[1]": {"system": "total microbial count (APC)"}, "coliforms (ECC)": {"system": "coliforms (ECC)"}, "yeast and mold (YM)": {"system": "yeast and mold (YM)"}},
  "data": [
    {"substance": "Percitric acid [PCA]", "values": [
      {"measurement": "efficiency against APC", "setting": "[1]", "value": "efficient"},
      {"measurement": "efficiency against ECC", "setting": "coliforms (ECC)", "value": "efficient"},
      {"measurement": "effect on YM", "setting": "yeast and mold (YM)", "value": "minimal effect"}
    ]}
  ]
}
